Read-outs that look alike come from different tables or passages of the source.
How the values were obtained:
CDC7 = CDC7 (Homo sapiens, UniProt O00311); assay: CDC7 inhibition, biochemical chemiluminescence assay (Kinase Glo, IC50 determination)
Summary of the method: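 CDC7 enzyme preincubated with compound 10 min at ambient temperature, then ATP mix in Tris Base added; reaction 90 min at 24-27 °C. Remaining ATP quantified by Kinase Glo luminescence to give IC50.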

[1] = target: PIM (PIM-1, PIM-2, and/or PIM-3); assay: PIM-1, PIM-2 and PIM-3 inhibition, biochemical chemiluminescence assays (Kinase Glo, IC50 determination); conditions: Table 1 activity class; PIM refers to PIM-1, PIM-2, and/or PIM-3; read-out: PIM IC50 (Activity B)
CK2 = CK2 (Homo sapiens, UniProt P68400); assay: CK2 inhibition, biochemical chemiluminescence holoenzyme assay (Kinase Glo, IC50 determination); conditions: Table 1 activity class; symbol given only if active; read-out: CK2 IC50 (Activity C)
CK2, sequence (P68400 whole entry): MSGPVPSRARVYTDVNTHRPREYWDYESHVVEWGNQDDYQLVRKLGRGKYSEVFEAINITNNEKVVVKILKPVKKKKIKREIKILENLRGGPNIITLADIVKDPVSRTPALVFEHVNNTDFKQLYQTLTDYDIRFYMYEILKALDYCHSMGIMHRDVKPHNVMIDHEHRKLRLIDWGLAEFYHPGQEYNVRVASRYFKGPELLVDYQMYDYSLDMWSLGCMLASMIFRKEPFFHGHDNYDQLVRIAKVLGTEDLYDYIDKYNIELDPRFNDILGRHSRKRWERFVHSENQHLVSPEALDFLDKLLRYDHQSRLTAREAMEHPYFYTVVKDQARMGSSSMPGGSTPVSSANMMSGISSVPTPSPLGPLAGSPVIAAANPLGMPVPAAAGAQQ
CK2, sequence (P67870 whole entry partner): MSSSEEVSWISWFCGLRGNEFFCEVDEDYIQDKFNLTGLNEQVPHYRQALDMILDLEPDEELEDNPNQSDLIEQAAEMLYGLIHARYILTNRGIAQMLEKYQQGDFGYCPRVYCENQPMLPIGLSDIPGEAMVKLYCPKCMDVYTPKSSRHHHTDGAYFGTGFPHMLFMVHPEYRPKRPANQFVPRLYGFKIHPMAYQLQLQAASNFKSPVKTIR
Summary of the method: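 Holoenzyme CK2 assay; compounds pre-incubated with substrate and enzyme, then reacted 150 min at 24-27° C. Remaining ATP measured as luminescence with Kinase Glo, and IC50 derived from the signal.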

[2] = Table 1 activity class, symbol given only if active, read-out: CDC7 IC50 (Activity A)
[3] = compounds in Table 1, read-out: CDC7 IC50 value

CDC7, sequence (O00311 whole entry): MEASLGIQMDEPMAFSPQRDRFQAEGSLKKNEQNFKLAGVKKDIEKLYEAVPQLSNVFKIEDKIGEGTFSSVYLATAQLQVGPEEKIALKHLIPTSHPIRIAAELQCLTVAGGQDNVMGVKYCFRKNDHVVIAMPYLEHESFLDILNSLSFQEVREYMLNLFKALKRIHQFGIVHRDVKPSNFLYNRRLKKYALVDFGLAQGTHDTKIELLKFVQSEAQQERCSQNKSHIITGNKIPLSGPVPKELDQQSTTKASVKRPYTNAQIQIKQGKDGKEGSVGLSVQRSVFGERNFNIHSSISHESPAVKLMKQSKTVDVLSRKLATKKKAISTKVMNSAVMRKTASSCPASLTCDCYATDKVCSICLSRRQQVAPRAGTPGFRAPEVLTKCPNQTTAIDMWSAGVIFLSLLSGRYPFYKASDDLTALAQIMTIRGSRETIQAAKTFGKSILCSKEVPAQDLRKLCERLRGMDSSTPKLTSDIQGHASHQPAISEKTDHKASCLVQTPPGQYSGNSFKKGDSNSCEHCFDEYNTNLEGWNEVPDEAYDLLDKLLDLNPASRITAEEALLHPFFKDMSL
CDC7, sequence (Q9UBU7 whole entry partner): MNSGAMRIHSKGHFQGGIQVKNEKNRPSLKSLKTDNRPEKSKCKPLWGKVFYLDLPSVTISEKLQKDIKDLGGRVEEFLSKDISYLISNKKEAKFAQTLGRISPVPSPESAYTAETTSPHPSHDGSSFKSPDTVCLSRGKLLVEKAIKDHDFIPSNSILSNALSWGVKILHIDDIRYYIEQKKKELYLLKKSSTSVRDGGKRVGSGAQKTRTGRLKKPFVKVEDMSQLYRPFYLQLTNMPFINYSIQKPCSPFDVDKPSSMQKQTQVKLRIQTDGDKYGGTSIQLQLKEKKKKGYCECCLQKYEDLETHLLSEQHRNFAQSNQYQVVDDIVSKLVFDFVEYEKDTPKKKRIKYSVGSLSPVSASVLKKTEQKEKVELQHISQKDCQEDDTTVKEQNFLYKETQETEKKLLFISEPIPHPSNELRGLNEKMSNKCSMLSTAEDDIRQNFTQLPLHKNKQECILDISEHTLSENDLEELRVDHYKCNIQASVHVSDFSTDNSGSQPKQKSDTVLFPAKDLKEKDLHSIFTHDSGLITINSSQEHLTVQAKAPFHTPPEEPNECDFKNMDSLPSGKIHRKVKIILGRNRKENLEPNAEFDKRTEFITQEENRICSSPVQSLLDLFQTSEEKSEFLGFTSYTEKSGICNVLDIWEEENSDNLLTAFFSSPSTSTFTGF

SMILES | IC50 (CDC7; [2]) [µM] | IC50 [1] [µM] | IC50 (CK2) [µM] | IC50 (CDC7; [3]) [µM]
CC(C)C(c1nc2c(oc3ccc(Br)cc32)c(=O)[nH]1)N1CCCC1 (stereo not drawn) [Compound 153, 8-Bromo-2-(2-methyl-1-pyrrolidin-1-ylpropyl)[1]benzofuro[3,2-d]pyrimidin-4(3H)-one] | < 10 | < 10 | < 10 | –
O=c1[nH]c([C@@H]2CCN2)nc2c1oc1ccc(Br)cc12 [Compound 509, 2-[(2S)-azetidin-2-yl]-8-bromo[1]benzofuro[3,2-d]pyrimidin-4(3H)-one] | < 10 | < 10 | < 10 | < 0.1
COc1cccc2oc3c(=O)[nH]c(CN4CC[C@H](O)C4)nc3c12 [Compound 448, 2-{[(3S)-3-hydroxypyrrolidin-1-yl]methyl}-9-(methyloxy)[1]benzofuro[3,2-d]pyrimidin-4(3H)-one] | < 10 | < 10 | < 10 | –
COc1ccc2oc3c(=O)[nH]c(C4CCCN4)nc3c2c1 (stereo in doubt) [Compound 494, 8-(methyloxy)-2-[(2S)-pyrrolidin-2-yl][1]benzofuro[3,2-d]pyrimidin-4(3H)-one] | < 10 | < 10 | < 10 | –
O=c1[nH]c(-c2ccc(Br)cc2Cl)nc2c1oc1ccc(Br)cc12 [Compound 116, 8-bromo-2-(4-bromo-2-chlorophenyl)[1]benzofuro[3,2-d]pyrimidin-4(3H)-one] | < 10 | < 10 | < 10 | –
O=c1[nH]c(CNCc2ccccc2Cl)nc2c1oc1ccc(Br)cc12 [Compound 235, 8-bromo-2-({[(2-chlorophenyl)methyl]amino}methyl)[1]benzofuro[3,2-d]pyrimidin-4(3H)-one] | < 10 | < 10 | < 10 | –
O=C(Nc1ccc(-c2nc3c(oc4ccc(Br)cc43)c(=O)[nH]2)c(Cl)c1)c1ccno1 [Compound 324, N-[4-(8-bromo-4-oxo-3,4-dihydro[1]benzofuro[3,2-d]pyrimidin-2-yl)-3-chlorophenyl]isoxazole-5-carboxamide] | < 10 | < 10 | < 10 | –
O=c1[nH]c(-c2ccc(NCCC3CCNCC3)cc2Cl)nc2c1oc1ccc(Br)cc12 [Compound 197, 8-bromo-2-{2-chloro-4-[(2-piperidin-4-ylethyl)amino]phenyl}[1]benzofuro[3,2-d]pyrimidin-4(3H)-one] | < 10 | < 10 | < 10 | –
CN(C)CCCC(=O)Nc1ccc(-c2nc3c(oc4ccc(Br)cc43)c(=O)[nH]2)c(Cl)c1 [Compound 160, N-[4-(8-bromo-4-oxo-3,4-dihydro[1]benzofuro[3,2-d]pyrimidin-2-yl)-3-chlorophenyl]-4-(dimethylamino)butanamide] | < 10 | < 10 | < 10 | –
CN(C)Cc1cccc(-c2nc3c(oc4ccc(Br)cc43)c(=O)[nH]2)c1 [Compound 353, 8-Bromo-2-{3-[(dimethylamino)methyl]phenyl}[1]benzofuro[3,2-d]pyrimidin-4(3H)-one] | < 10 | < 10 | < 10 | –
Cc1nccn1Cc1nc2c(oc3ccc(Br)cc32)c(=O)[nH]1 [Compound 100, 8-bromo-2-[(2-methyl-1H-imidazol-1-yl)methyl][1]benzofuro[3,2-d]pyrimidin-4(3H)-one] | < 10 | < 10 | < 10 | –
CCC(CC)NCc1nc2c(oc3ccc(Br)cc32)c(=O)[nH]1 [Compound 502, 8-bromo-2-{[(1-ethylpropyl)amino]methyl}[1]benzofuro[3,2-d]pyrimidin-4(3H)-one] | < 10 | < 10 | < 10 | < 0.1
CN(CCO)Cc1nc2c(oc3ccc(Br)cc32)c(=O)[nH]1 [Compound 401, 8-bromo-2-{[(2-hydroxyethyl)(methyl)amino]methyl}[1]benzofuro[3,2-d]pyrimidin-4(3H)-one] | < 10 | < 10 | < 10 | < 0.1
O=c1c2oc3ccc(Br)cc3c2nc2n1CN1CCC[C@@H]21 [Compound 453, (13bS)-11-bromo-1,2,3,13b-tetrahydro-7H-[1]benzofuro[3,2-d]pyrrolo[1′,2′:3,4]imidazo[1,5-a]pyrimidin-7-one] | < 10 | < 10 | < 10 | < 0.1
O=c1[nH]c(CN2CCC3(CCNCC3)CC2)nc2c1oc1ccc(Br)cc12 [Compound 311, 8-bromo-2-(3,9-diazaspiro[5.5]undec-3-ylmethyl)[1]benzofuro[3,2-d]pyrimidin-4(3H)-one] | < 10 | < 10 | < 10 | –
NCc1ccc(-c2nc3c(oc4ccc(Br)cc43)c(=O)[nH]2)cc1 [Compound 349, 2-[4-(Aminomethyl)phenyl]-8-bromo[1]benzofuro[3,2-d]pyrimidin-4(3H)-one] | < 10 | < 10 | < 10 | –
Nc1ccc(C(=O)Nc2ccc(-c3nc4c(oc5ccc(Br)cc54)c(=O)[nH]3)c(Cl)c2)cn1 [Compound 439, 6-amino-N-[4-(8-bromo-4-oxo-3,4-dihydro[1]benzofuro[3,2-d]pyrimidin-2-yl)-3-chlorophenyl]pyridine-3-carboxamide] | < 10 | < 10 | < 10 | –
O=C(CCN1CCOCC1)Nc1ccc(-c2nc3c(oc4ccc(Br)cc43)c(=O)[nH]2)c(Cl)c1 [Compound 248, N-[4-(8-bromo-4-oxo-3,4-dihydro[1]benzofuro[3,2-d]pyrimidin-2-yl)-3-chlorophenyl]-3-morpholin-4-ylpropanamide] | < 10 | < 10 | < 10 | –
O=c1[nH]c(-c2c(Cl)cncc2Cl)nc2c1oc1ccc(Br)cc12 [Compound 107, 8-bromo-2-(3,5-dichloropyridin-4-yl)[1]benzofuro[3,2-d]pyrimidin-4(3H)-one] | < 10 | < 10 | < 10 | –
O=C(Nc1ccc(-c2nc3c(oc4ccc(Br)cc43)c(=O)[nH]2)c(Cl)c1)c1cnc2[nH]ccc2c1 [Compound 395, ′N-[4-(8-bromo-4-oxo-3,4-dihydro[1]benzofuro[3,2-d]pyrimidin-2-yl)-3-chlorophenyl]-1H-pyrrolo[2,3-b]pyridine-5-carboxamide] | < 10 | < 10 | < 10 | –
NC(=O)C1CCN(Cc2nc3c(oc4ccc(Br)cc43)c(=O)[nH]2)C1 (stereo not drawn) [Compound 270, 1-[(8-bromo-4-oxo-3,4-dihydro[1]benzofuro[3,2-d]pyrimidin-2-yl)methyl]pyrrolidine-3-carboxamide] | < 10 | < 10 | < 10 | < 0.1
O=c1[nH]c(-c2ccncc2Br)nc2c1oc1ccc(Br)cc12 [Compound 43, 8-bromo-2-(3-bromopyridin-4-yl)[1]benzofuro[3,2-d]pyrimidin-4(3H)-one] | < 10 | < 10 | < 10 | –
O=c1[nH]c(CN2CCC(NCC3CCNCC3)C2)nc2c1oc1ccc(Br)cc12 (stereo not drawn) [Compound 110, 8-bromo-2-({3-[(piperidin-4-ylmethyl)amino]pyrrolidin-1-yl}methyl)[1]benzofuro[3,2-d]pyrimidin-4(3H)-one] | < 10 | < 10 | < 10 | –
O=c1[nH]c(CN2C[C@H](O)[C@@H](O)C2)nc2c1oc1ccc(Br)cc12 [Compound 333, 8-bromo-2-(((3 S,4S)-3,4-dihydroxypyrrolidin-1-yl)methyl)benzofuro[3,2-d]pyrimidin-4(3H)-one] | < 10 | < 10 | < 10 | < 0.1
CC(=O)N[C@@H]1CCN(Cc2nc3c(oc4ccc(Br)cc43)c(=O)[nH]2)C1 [Compound 364, N-{(3R)-1-[(8-bromo-4-oxo-3,4-dihydro[1]benzofuro[3,2-d]pyrimidin-2-yl)methyl]pyrrolidin-3-yl}acetamide] | < 10 | < 10 | < 10 | < 0.1
CN1CCC(c2nc3c(oc4ccc(Br)cc43)c(=O)[nH]2)CC1 [Compound 185, 8-Bromo-2-(1-methylpiperidin-4-yl)[1]benzofuro[3,2-d]pyrimidin-4(3H)-one] | < 10 | < 10 | < 10 | < 0.1
Cn1cnc(C(=O)Nc2ccc(-c3nc4c(oc5ccc(Br)cc54)c(=O)[nH]3)c(Cl)c2)c1 [Compound 389, N-[4-(8-bromo-4-oxo-3,4-dihydro[1]benzofuro[3,2-d]pyrimidin-2-yl)-3-chlorophenyl]-1-methyl-1H-imidazole-4-carboxamide] | < 10 | < 10 | < 10 | –
Cc1ccc(C(=O)Nc2ccc(-c3nc4c(oc5ccc(Br)cc54)c(=O)[nH]3)c(Cl)c2)cn1 [Compound 291, N-[4-(8-bromo-4-oxo-3,4-dihydro[1]benzofuro[3,2-d]pyrimidin-2-yl)-3-chlorophenyl]-6-methylpyridine-3-carboxamide] | < 10 | < 10 | < 10 | –
O=c1[nH]c([C@@H]2C[C@@H](F)CN2)nc2c1oc1ccc(Br)cc12 [Compound 514, 8-bromo-2-[(2S,4R)-4-fluoropyrrolidin-2-yl][1]benzofuro[3,2-d]pyrimidin-4(3H)-one] | < 10 | < 10 | < 10 | < 0.1

From patent US20090247559A1 (Exelixis, Inc., priority 2007, published 2009)
